Laboratory results: patent publication US9861610B2, “Process for selective extraction of bioactive and bioavailable cinnamon polyphenols and procyanidin oligomers and a stable composition thereof” (AKAY FLAVOURS & AROMATICS PVT LTD., priority 2011, dated 2018)

Tested on: streptozotocin induced diabetic rats
Experiment: Serum insulin levels (chemiluminescence method, human specific kit)
Settings: 30 days treatment

COc1ccc(Cl)cc1C(=O)NCCc1ccc(S(=O)(=O)NC(=O)NC2CCCCC2)cc1 [Glibenclamide]
insulin levels: 0.4 μIU/ml
